Where “and” joins values, the source holds several entries; their conditions need not be identical. Equal values may be shown once.
System: 485368-065-R4-J2-PDC spheroids with HUVEC/MSC, viability
Assay: Anticancer human tumor 485368-065-R4-J2-PDC patient-derived pancreatic carcinoma cell line growth inhibition [CLK]
Details: for viability, T/C: stronger effect = lower value
How it was run: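 Multi-cell-type spheroids combined patient-derived tumor cells with HUVEC endothelial cells and human mesenchymal stem cells. Paired agents were dosed in half-log steps down from about clinical Cmax, or from 10 microM where Cmax was unknown.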

[1] = curve of first compound, second compound 0.0316 µM
[2] = curve of first compound, second compound 0.1 µM
[3] = curve of first compound, second compound 0.316 µM
[4] = curve of first compound, second compound 1 µM
[5] = curve of first compound, second compound 3.16 µM
[6] = curve of first compound, second compound 10 µM
[7] = second compound 0.0316 µM, first compound 0.0316 µM
[8] = second compound 0.0316 µM, first compound 0.1 µM
[9] = second compound 0.0316 µM, first compound 0.316 µM
[10] = second compound 0.0316 µM, first compound 1 µM
[11] = second compound 0.0316 µM, first compound 3.16 µM
[12] = second compound 0.0316 µM, first compound 10 µM
[13] = second compound 0.1 µM, first compound 0.0316 µM
[14] = second compound 0.1 µM, first compound 0.1 µM
[15] = second compound 0.1 µM, first compound 0.316 µM
[16] = second compound 0.1 µM, first compound 1 µM
[17] = second compound 0.1 µM, first compound 3.16 µM
[18] = second compound 0.1 µM, first compound 10 µM
[19] = second compound 0.316 µM, first compound 0.0316 µM
[20] = second compound 0.316 µM, first compound 0.1 µM
[21] = second compound 0.316 µM, first compound 0.316 µM
[22] = second compound 0.316 µM, first compound 1 µM
[23] = second compound 0.316 µM, first compound 3.16 µM
[24] = second compound 0.316 µM, first compound 10 µM
[25] = second compound 1 µM, first compound 0.0316 µM
[26] = second compound 1 µM, first compound 0.1 µM
[27] = second compound 1 µM, first compound 0.316 µM
[28] = second compound 1 µM, first compound 1 µM
[29] = second compound 1 µM, first compound 3.16 µM
[30] = second compound 1 µM, first compound 10 µM
[31] = second compound 3.16 µM, first compound 0.0316 µM
[32] = second compound 3.16 µM, first compound 0.1 µM
[33] = second compound 3.16 µM, first compound 0.316 µM
[34] = second compound 3.16 µM, first compound 1 µM
[35] = second compound 3.16 µM, first compound 3.16 µM
[36] = second compound 3.16 µM, first compound 10 µM
[37] = second compound 10 µM, first compound 0.0316 µM
[38] = second compound 10 µM, first compound 0.1 µM
[39] = second compound 10 µM, first compound 0.316 µM
[40] = second compound 10 µM, first compound 1 µM
[41] = second compound 10 µM, first compound 3.16 µM
[42] = second compound 10 µM, first compound 10 µM
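Note: spheroids exposed to compounds for seven days.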
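Throughout, for viability, T/C: 100% = DMSO vehicle control wells.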

CC(Nc1ccc2c(c1)OCCn1cc(N3C(=O)OCC3C(F)F)nc1-2)C(N)=O (stereo not drawn) + CNC(=O)c1ccc(Nc2nc(OC3CCCC3)c3c(-c4ccc5nc(C)oc5c4)c[nH]c3n2)c(OC)c1
IC50 [1]: > 10 µM | IC50 [2]: > 10 µM | IC50 [3]: > 10 µM | IC50 [4]: 2.51 µM | IC50 [5]: 0.368 µM | IC50 [6]: 0.4 µM | viability, T/C [7]: 93.5% | viability, T/C [8]: 119% | viability, T/C [9]: 105% | viability, T/C [10]: 97.2% | viability, T/C [11]: 90.4% | viability, T/C [12]: 79.3% | viability, T/C [13]: 92.3% | viability, T/C [14]: 116% | viability, T/C [15]: 102% | viability, T/C [16]: 89.8% | viability, T/C [17]: 75.2% | viability, T/C [18]: 67.5% | viability, T/C [19]: 76.8% | viability, T/C [20]: 82.1% | viability, T/C [21]: 71.1% | viability, T/C [22]: 63.8% | viability, T/C [23]: 63.3% | viability, T/C [24]: 54.1% | viability, T/C [25]: 81.8% | viability, T/C [26]: 64.8% | viability, T/C [27]: 63.2% | viability, T/C [28]: 57.8% | viability, T/C [29]: 47.5% | viability, T/C [30]: 43.7% | viability, T/C [31]: 68.2% | viability, T/C [32]: 59% | viability, T/C [33]: 50% | viability, T/C [34]: 45.8% | viability, T/C [35]: 38.7% | viability, T/C [36]: 36.6% | viability, T/C [37]: 61% | viability, T/C [38]: 56.6% | viability, T/C [39]: 50.1% | viability, T/C [40]: 45.5% | viability, T/C [41]: 41.5% | viability, T/C [42]: 33.8%

Nc1ccn(C2OC(CO)C(O)C2(F)F)c(=O)n1 (stereo not drawn)
viability, T/C (compound 0.0316 µM): 46.4% and 56.8% | viability, T/C (compound 0.1 µM): 30.6% and 37.9% | viability, T/C (compound 0.316 µM): 29.7% and 32.5% | viability, T/C (compound 1 µM): 31.6% and 32.8% | viability, T/C (compound 3.16 µM): 31.5% and 31.4% | viability, T/C (compound 10 µM): 26.7% and 30.9% | IC50 (curve of compound): < 0.0316 µM and 0.0477 µM

COC1C=CCC(C)C(C)S(=O)(=O)NC(=O)c2ccc3c(c2)N(CC2CCC21)CC1(CCCc2cc(Cl)ccc21)CO3 (stereo not drawn) + CNC(=O)c1ccc(Nc2nc(OC3CCCC3)c3c(-c4ccc5nc(C)oc5c4)c[nH]c3n2)c(OC)c1
IC50 [1]: > 10 µM | IC50 [2]: > 10 µM | IC50 [3]: > 10 µM | IC50 [4]: > 10 µM | IC50 [5]: > 10 µM | IC50 [6]: > 10 µM | viability, T/C [7]: 88.7% | viability, T/C [8]: 82.8% | viability, T/C [9]: 96.8% | viability, T/C [10]: 105% | viability, T/C [11]: 103% | viability, T/C [12]: 85.9% | viability, T/C [13]: 96% | viability, T/C [14]: 99.7% | viability, T/C [15]: 105% | viability, T/C [16]: 96.4% | viability, T/C [17]: 92.8% | viability, T/C [18]: 91.3% | viability, T/C [19]: 82.5% | viability, T/C [20]: 77.9% | viability, T/C [21]: 89.8% | viability, T/C [22]: 89.7% | viability, T/C [23]: 98.8% | viability, T/C [24]: 102% | viability, T/C [25]: 83.2% | viability, T/C [26]: 74.1% | viability, T/C [27]: 73.7% | viability, T/C [28]: 74.9% | viability, T/C [29]: 91.8% | viability, T/C [30]: 105% | viability, T/C [31]: 71.2% | viability, T/C [32]: 69.7% | viability, T/C [33]: 72.9% | viability, T/C [34]: 68.4% | viability, T/C [35]: 94.2% | viability, T/C [36]: 102% | viability, T/C [37]: 65.5% | viability, T/C [38]: 68.6% | viability, T/C [39]: 69.1% | viability, T/C [40]: 66.7% | viability, T/C [41]: 82.3% | viability, T/C [42]: 85.9%

C=C(F)C(=O)N1CCN(c2nc(OCC3CCCN3C)nc3c2CCN(c2cccc4cccc(Cl)c24)C3)CC1CC#N (stereo not drawn)
viability, T/C (compound 0.0316 µM): 94.9% and 103% | viability, T/C (compound 0.1 µM): 97% and 106% | viability, T/C (compound 0.316 µM): 95.6% and 100% | viability, T/C (compound 1 µM): 106% and 105% | viability, T/C (compound 3.16 µM): 121% and 113% | viability, T/C (compound 10 µM): 104% and 126% | IC50 (curve of compound): > 10 µM
